Data from US10986838B2, “Herbicides” (SYNGENTA PARTICIPATIONS AG, priority 2016, dated 2021).

Assays:
Format in all cases: in vivo
[1] = test system: Alopecurus myosuroides (ALOMY); experiment: Pre-emergence herbicidal activity (B1); conditions: Test 1a, 1000 g/ha, evaluated after 13 days, 5=total damage to plant, 0=no damage to plant
In short: (§1)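 After one day of cultivation, soil pots were treated pre-emergence by spray with active ingredient in acetone/water (50:50) and 0.5% Tween 20. Evaluation at 13 days used a 0–5 scale, where 5 meant total plant damage.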

Avena fatua (AVEFA) [2] = experiment: Pre-emergence herbicidal activity (B1); conditions: Test 1a, 1000 g/ha, evaluated after 13 days, 5=total damage to plant, 0=no damage to plant
In short: as §1

[3] = test system: Echinochloa crus-galli (ECHCG); experiment: Pre-emergence herbicidal activity (B1); conditions: Test 1a, 1000 g/ha, evaluated after 13 days, 5=total damage to plant, 0=no damage to plant
In short: as §1

Lolium perenne (LOLPE) [4] = experiment: Pre-emergence herbicidal activity (B1); conditions: Test 1a, 1000 g/ha, evaluated after 13 days, 5=total damage to plant, 0=no damage to plant
In short: as §1

Setaria faberi (SETFA) [5] = experiment: Pre-emergence herbicidal activity (B1); conditions: Test 1a, 1000 g/ha, evaluated after 13 days, 5=total damage to plant, 0=no damage to plant
In short: as §1

[6] = test system: Triticum aestivium (TRZAW); experiment: Pre-emergence herbicidal activity (B1); conditions: Test 1a, 1000 g/ha, evaluated after 13 days, 5=total damage to plant, 0=no damage to plant
In short: as §1

[7] = test system: Alopecurus myosuroides (ALOMY); experiment: Post-emergence herbicidal activity (B2); conditions: Test B2a, 1000 g/ha, evaluated after 13 days, 5=total damage to plant, 0=no damage to plant
In short: (§2)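 Plants grown for 8 days in a glasshouse (24/16 °C day/night, 14 h light, 65% humidity) were sprayed post-emergence with compound formulated in acetone/water 50:50 containing 0.5% Tween 20. Damage was scored 13 days later on a 0–5 scale (5 = total damage).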

Avena fatua (AVEFA) [8] = experiment: Post-emergence herbicidal activity (B2); conditions: Test B2a, 1000 g/ha, evaluated after 13 days, 5=total damage to plant, 0=no damage to plant
In short: as §2

[9] = test system: Echinochloa crus-galli (ECHCG); experiment: Post-emergence herbicidal activity (B2); conditions: Test B2a, 1000 g/ha, evaluated after 13 days, 5=total damage to plant, 0=no damage to plant
In short: as §2

Lolium perenne (LOLPE) [10] = experiment: Post-emergence herbicidal activity (B2); conditions: Test B2a, 1000 g/ha, evaluated after 13 days, 5=total damage to plant, 0=no damage to plant
In short: as §2

Setaria faberi (SETFA) [11] = experiment: Post-emergence herbicidal activity (B2); conditions: Test B2a, 1000 g/ha, evaluated after 13 days, 5=total damage to plant, 0=no damage to plant
In short: as §2

[12] = test system: Triticum aestivium (TRZAW); experiment: Post-emergence herbicidal activity (B2); conditions: Test B2a, 1000 g/ha, evaluated after 13 days, 5=total damage to plant, 0=no damage to plant
In short: as §2

## Fc1cncc(-c2ccc(NCCc3ccccc3)c(C(F)(F)F)n2)c1 [Compound A49]
[1]
  ALOMY damage score: 0
Avena fatua (AVEFA) [2]
  AVEFA damage score: 1
[3]
  ECHCG damage score: 3
Lolium perenne (LOLPE) [4]
  LOLPE damage score: 1
Setaria faberi (SETFA) [5]
  SETFA damage score: 5
[6]
  TRAZW damage score: 0
[7]
  ALOMY damage score: 0
Avena fatua (AVEFA) [8]
  AVEFA damage score: 3
[9]
  ECHCG damage score: 3
Lolium perenne (LOLPE) [10]
  LOLPE damage score: 3
Setaria faberi (SETFA) [11]
  SETFA damage score: 5
[12]
  TRAZW damage score: 0

## N#Cc1nc(-c2cncnc2)ccc1N [Compound A44]
[1]
  ALOMY damage score: 0
Avena fatua (AVEFA) [2]
  AVEFA damage score: 1
[3]
  ECHCG damage score: 3
Lolium perenne (LOLPE) [4]
  LOLPE damage score: 2
Setaria faberi (SETFA) [5]
  SETFA damage score: 5
[6]
  TRAZW damage score: 0
[7]
  ALOMY damage score: 0
Avena fatua (AVEFA) [8]
  AVEFA damage score: 2
[9]
  ECHCG damage score: 3
Lolium perenne (LOLPE) [10]
  LOLPE damage score: 1
Setaria faberi (SETFA) [11]
  SETFA damage score: 4
[12]
  TRAZW damage score: 0
